Source: paper PMC4987650, “Structural Investigation of Park’s Nucleotide on Bacterial Translocase MraY: Discovery of Unexpected MraY Inhibitors” (Scientific Reports, 2016)
“Also recorded” adds a separate entry of the source.

Columns and labels:
[1] = tested on: CC(=O)N[C@H]1[C@@H](OP(=O)(O)OP(=O)(O)OC[C@H]2O[C@@H](n3ccc(=O)[nH]c3=O)[C@H](O)[C@@H]2O)O[C@H](CO)[C@@H](O)[C@@H]1O[C@H](C)C(=O)N[C@@H](C)C(=O)N[C@H](CCC(=O)N[C@@H](CCCCNC(=O)CCCCCNc1ccc([N+](=O)[O-])c2nonc12)C(=O)N[C@H](C)C(=O)N[C@H](C)C(=O)O)C(=O)O; test: Fluorescent enhancement assay, mutant MraY; assay type: biochemical, Bacillus subtilis; conditions: pH 8.0; 37.0 °C
Description: Site–directed mutagenesis of MraY. Site-directed mutagenesis of the B. subtilis MBP-tagged MraY enzyme was performed directly on the pMAL -BS-MraY-16 expression plasmid by using the “Quickchanged XL Site-Directed Mutagenesis Kit ’’ from stratagene and the oligonucleotides shown below. Mutations introduced in the mraY gene sequence were checked by DNA sequencing. […]
MraY-T51A-R 5’-[…]-3’
T53A MraY-T53A-F 5’-[…]-3’
MraY-T53A-R 5’-[…]-3’
K102A MraY-K102A-F 5’-[…]-3’
MraY-K102A-R 5’-[…]-3’
K226A Mray-K226A-F 5’-[…]-3’ […]
F228A MraY-F228A-F 5’-[…]-3’
MraY-F228A-R 5’-[…]-3’
Q271A Mray-Q271A-F 5’-[…]-3’
Mray-Q271A-R 5’-[…]-3’
R281A MraY-R281A-F 5’-[…]-3’
MraY-R281A-R 5’-[…]-3’
W297A MraY-W297A-F 5’-[…]-3’
MraY-W297A-R 5’-[…]-3’
(§1) Determine kinetic parameters by MraY fluorescence enhancement assay. The fluorescence enhancement assay was performed in 384-well plate as described by Bugg et al. with slight modifications.5 The reaction mixture containing MraYBS (10 μg/mL), C55P (200 μM) in 30 μL reaction buffer (30 mM Tris, 10 mM MgCl2, 10 mM NaCl, 0.1 mM Tween-20, 2.5% DMSO, pH 8.0) were pre-incubated at 37 °C for 15 min. The reactions were initiated by the addition of various concentrations of NBD-Park’s nucleotide 6 (0 to 160 μM). For inhibition study, a various concentrations of inhibitors were added before the addition of substrate 6. The continuous fluorescence increase over 60 min was monitored with λex 466 nm/λem 535 nm by fluorescence microplate reader (SpectraMax M5, Molecular Devices, LLC) at 37 °C. Linear regressions of increased fluorescent units (FLU) versus time (min) were used to calculate the initial velocities for each reaction. The kinetic parameters values (Ki, KM, and Vmax) were obtained by nonlinear regression analysis using the […] equation with the GraphPad Prism program (GraphPad Software, San
(§2) (1 picture or pasted object on this page, not shown here)

MraYBS [2] = molecular target: T1, MraYBS (Bacillus subtilis, UniProt Q03521); test: MraY fluorescence enhancement assay (kinetics, inhibition); assay type: biochemical; conditions: for Inhibition Mode: Lineweaver-Burk, 6 as substrate
T1 construct: MBP; made in house
T1 sequence (Q03521 1-324): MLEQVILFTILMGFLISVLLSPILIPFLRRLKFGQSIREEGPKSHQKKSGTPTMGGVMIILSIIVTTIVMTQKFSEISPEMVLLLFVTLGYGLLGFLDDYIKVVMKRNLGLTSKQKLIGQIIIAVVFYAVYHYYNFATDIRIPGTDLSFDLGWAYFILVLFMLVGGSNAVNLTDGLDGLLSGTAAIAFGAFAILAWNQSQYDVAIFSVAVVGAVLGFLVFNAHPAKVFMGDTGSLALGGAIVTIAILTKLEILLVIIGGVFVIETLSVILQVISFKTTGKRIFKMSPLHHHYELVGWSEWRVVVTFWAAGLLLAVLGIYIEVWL
Description: as §1

S. aureus = test: Minimal inhibitory concentration, broth dilution; assay type: cell-based, S. aureus (BCRC 11863); conditions: Staphylococcus aureus, standard broth dilution
Description: (§3) Determination of Minimal Inhibition Concentration (MIC). B. subtilis (BCRC 10614) and S. aureus (BCRC 11863) was obtained from Bioresource Collection and Research Center (BCRC), Taiwan. The minimal inhibitory concentration of tested compounds was determined following the NCCLS standard. The experiments were conducted in 96-well microtiter plates using 16-point 2-fold dilutions in Muller-Hilton broth. Exponentially growing cells at 5 × 10^5 cells/mL were incubated with test compounds at various concentrations in a final volume of 100 μL. After an 18 to 24 h incubation at 37 °C, the minimal concentration of the compound that prevents at least 95% bacterial growth was determined as the MIC value of a given molecule.
as §2

MraYBS [3] = molecular target: T1, MraYBS; test: Biolayer interferometry-based (BLI) binding assay
Description: MraYBS binding was measured in a biolayer interferometry-based binding assay on Octet Red96® instrument (ForteBio, Inc.). The biotinylation of MraYBS was performed with using EZ-Link® Sulfo-NHS-LC-LC-Biotin Kit (Thermo Fisher Scientific, Inc.). In general, MraYBS (1.7 mg/mL) in 50 μL reaction buffer (0.01 M HEPES pH 7.4, 0.15 M NaCl, 0.005% v/v Surfactant P20), was added by the sulfo-NHS-LC-LC-biotin reagent (1 mM, 1 μL). After incubating for 30 minutes at room temperature, the biotinylated-MraYBS was purified by a Zeba^TM Spin Desalting Columns, 7K MWCO (Thermo Fisher Scientific, Inc.), and the buffer was changed to the binding buffer (30 mM Tris, 10 mM MgCl2, 10 mM NaCl, 0.1 mM Tween-20, pH 8.0) during the purification. Comparing to the non-biotinylated-MraYBS, the biotinylated-MraYBS remains 62% activity measured by the HPLC-based MraY functional assay in 1 h reaction. The biotinylated MraYBS was then immobilized to Super Streptavidin (SSA) Octet tips (ForteBio, Inc.) for reaching a fixed signal of 3 nm. Before the assay starting, the MraYBS-labeled SSA sensors were pre-soaked in binding buffer for 30 min. The association of Park’s analogues with MraYBS were measured by incubating MraYBS-labeled SSA sensors in binding buffer containing various concentrations of samples in Octet Red system. The dissociation was monitored by moving the ligand biosenors from the analyte solution to binding buffer. The dissociation constants (KD) were obtained by nonlinear regression analysis using the specific binding model with the GraphPad Prism program (GraphPad Software, San Diego, CA).

B. subtilis = test: Minimal inhibitory concentration, broth dilution; assay type: cell-based, B. subtilis (BCRC 10614); conditions: Bacillus subtilis, standard broth dilution
Description: as §3, §2

MraYBS [4] = molecular target: T1, MraYBS; test: HPLC-based MraY functional assay (substrate activity); assay type: biochemical; conditions: Park's nucleotides 10 μM, MraYBS 40 μg/mL, C55P 1 mM, 37 °C, 24 h
Description: The purified MraY from Bacillus subtilis was prepared as described in our previous reports. […] […] The reaction mixtures were added by uridine (0.01 mg/mL) as the internal standard and heated to 100 °C to stop the transferring reaction. The samples were analyzed by RP-C18 HPLC with gradient elution of 0.25 M NH4HCO3(aq)/15% MeOH in water (100:0 to 0:100) at a flow rate of 1 mL/min over 45 min, and the peaks of substrates were monitored at UV 260 nm. For 6 and 11–17, the reaction mixture containing MraYBS (10 μg/mL), C55P (200 μM), 6-(7-Nitro-2,1,3-benzoxadiazol-4-ylamino)hexanoic acid (5 μM, internal standard) in 10 μL reaction buffer (30 mM Tris, 10 mM MgCl2, 10 mM NaCl, 0.1 mM Tween-20, 2.5% DMSO, pH 8.0) were pre-incubated at 37 °C for 15 min. […] The reaction mixtures were heated to 100 °C to stop the transferring reaction, and samples were analyzed by an anion-exchange column (SAX1, Supelco Co., 5 μm, 4.6 × 250 mm) with a linear gradient elution of NH4OAc (20 mM to 1 M in MeOH) at a flow rate of 1.0 mL/min over 30 min. The fluorescent substrates were monitored with λex 466 nm/λem 535 nm by fluorescence detector.

[5] = substrate: CC(=O)N[C@H]1[C@@H](OP(=O)(O)OP(=O)(O)OC[C@H]2O[C@@H](n3ccc(=O)[nH]c3=O)[C@H](O)[C@@H]2O)O[C@H](CO)[C@@H](O)[C@@H]1O[C@H](C)C(=O)N[C@@H](C)C(=O)N[C@H](CCC(=O)N[C@@H](CCCCNC(=O)CCCCCNc1ccc([N+](=O)[O-])c2nonc12)C(=O)N[C@H](C)C(=O)N[C@H](C)C(=O)O)C(=O)O; test: MraY fluorescence enhancement assay (kinetics, inhibition); assay type: biochemical, Bacillus subtilis; conditions: other: WT MraYBS, 6 as the substrate; pH 8.0; 37.0 °C
Description: as §1

MraYBS K102A mutant (Bacillus subtilis subsp. subtilis str. 168; K102A)
Km [1]: 49 ± 9 µM

MraYBS K226A mutant (Bacillus subtilis subsp. subtilis str. 168; K226A)
Km [1]: 24 ± 3 µM

MraYBS R281A mutant (Bacillus subtilis subsp. subtilis str. 168; R281A)
Km [1]: 20 ± 1 µM

CC(=O)N[C@H]1[C@@H](OP(=O)(O)OP(=O)(O)OC[C@H]2O[C@@H](n3cc(NC(=O)Cc4ccc(C)cc4)c(=O)[nH]c3=O)[C@H](O)[C@@H]2O)O[C@H](CO)[C@@H](O)[C@@H]1O[C@H](C)C(=O)N[C@@H](C)C(=O)O [Compound 20]
Ki (MraYBS [2]): 11 ± 3 µM | difference of inhibition abilities (Ki values) of 19 and 20 (MraYBS [2]): 70 fold | Inhibition Mode (MraYBS [2]): Competitive | MIC (S. aureus): > 200 µM | Kd (MraYBS [3]): 197 ± 47 µM | binding affinity fold stronger than that of 19 (MraYBS [3]; ratio of KD): approximately 1.5 fold | MIC (B. subtilis): > 200 µM

MraYBS W297A mutant (Bacillus subtilis subsp. subtilis str. 168; W297A)
Km [1]: 63 ± 9 µM

CC(=O)N[C@H]1[C@@H](OP(=O)(O)OP(=O)(O)OC[C@H]2O[C@@H](n3cc(NC(=O)Cc4ccc(C)cc4)c(=O)[nH]c3=O)[C@H](O)[C@@H]2O)O[C@H](CO)[C@@H](O)[C@@H]1O[C@H](C)C(=O)N[C@@H](C)C(=O)N[C@H](CCC(=O)N[C@@H](CCCCN)C(=O)N[C@H](C)C(=O)N[C@H](C)C(=O)O)C(=O)O [Compound 22]
Ki (MraYBS [2]): 4 ± 1 µM | potency relative to tunicamycins (Ki) (MraYBS [2]): approximately two-fold; also recorded: roughly twice | Inhibition Mode (MraYBS [2]): Competitive | MIC (S. aureus): > 200 µM | substrate under extreme reaction conditions (MraYBS [4]): not be a substrate | Kd (MraYBS [3]): 86 ± 12 µM | binding affinity fold stronger than that of 20 (MraYBS [3]; ratio of KD): approximately 2.3 fold | MIC (B. subtilis): > 200 µM

MraYBS T53A mutant (Bacillus subtilis subsp. subtilis str. 168; T53A)
Km [1]: 70 ± 11 µM

MraYBS F228A mutant (Bacillus subtilis subsp. subtilis str. 168; F228A)
Km [1]: 18 ± 2 µM

MraYBS Q271A mutant (Bacillus subtilis subsp. subtilis str. 168; Q271A)
Km [1]: 72 ± 11 µM

MraYBS T51A mutant (Bacillus subtilis subsp. subtilis str. 168; T51A)
Km [1]: 24 ± 2 µM

B1: MraYBS (Bacillus subtilis subsp. subtilis str. 168) (protein)
chain: MLEQVILFTILMGFLISVLLSPILIPFLRRLKFGQSIREEGPKSHQKKSGTPTMGGVMIILSIIVTTIVMTQKFSEISPEMVLLLFVTLGYGLLGFLDDYIKVVMKRNLGLTSKQKLIGQIIIAVVFYAVYHYYNFATDIRIPGTDLSFDLGWAYFILVLFMLVGGSNAVNLTDGLDGLLSGTAAIAFGAFAILAWNQSQYDVAIFSVAVVGAVLGFLVFNAHPAKVFMGDTGSLALGGAIVTIAILTKLEILLVIIGGVFVIETLSVILQVISFKTTGKRIFKMSPLHHHYELVGWSEWRVVVTFWAAGLLLAVLGIYIEVWL
notes: MBP; made in house
Km [5]: 18 ± 1 µM
